Measured values taken from patent publication EP0508726A1, “Novel process for the preparation of 9-deoxo-8a-aza-8a-homoerythromycin a and its 8a-alkyl derivatives” (MERCK & CO. INC., priority 1991, dated 1992).
Converted amounts (≈) assume the structure as drawn.

What was measured:
Assay in all cases: liquid turbidimetric microtiter MIC determination
Type in all cases: cell-based
[1] = test system: Staphylococcus haemolyticus MB 5412; settings: MB5412, brain heart infusion broth
Text: (§1) The antibacterial activities of compounds (IV), (X) against a panel of aerobic Gram positive and negative bacteria is shown in the following Table. The assay employs a liquid turbidimetric microtiter method for the determination of the minimum inhibitory concentration (MIC) in brain heart infusion broth. […] The MIC is generally not an absolute value but rather a concentration range that falls within a two-fold dilution limit. Generally twelve two-fold dilutions of the test compound are employed with the initial concentration set at 128 mcg/ml.

[2] = test system: Streptococcus agalactiae CL 1343; settings: CL1343, brain heart infusion broth
Text: as §1

[3] = test system: Streptococcus pyogenes MB 2874; settings: MB2874, brain heart infusion broth
Text: as §1

[4] = test system: Streptococcus pneumoniae CL 2883; settings: CL2883, brain heart infusion broth
Text: as §1

[5] = test system: Streptococcus pyogenes MB 54061; settings: MB54061, brain heart infusion broth
Text: as §1

[6] = test system: Enterococcus faecalis MB 5407; settings: MB5407, brain heart infusion broth
Text: as §1

[7] = test system: Enterococcus faecium MB 5416; settings: MB5416, brain heart infusion broth
Text: as §1

[8] = test system: Escherichia coli MB 4926; settings: MB4926, brain heart infusion broth
Text: as §1

[9] = test system: Pseudomonas stutzeri MB 1231; settings: Stutzerimonas stutzeri, MB1231, brain heart infusion broth
Text: as §1

[10] = test system: Klebsiella pneumoniae MB 4005; settings: MB4005, brain heart infusion broth
Text: as §1

[11] = test system: Escherichia coli MB 2884; settings: MB2884, brain heart infusion broth
Text: as §1

[12] = test system: Staphylococcus aureus MB 2865; settings: MB2865, brain heart infusion broth
Text: as §1

[13] = test system: Steptococcus viridans CL 2943; settings: brain heart infusion broth
Text: as §1

[14] = test system: Yersinia enterocoltica CL 1598; settings: CL1598, brain heart infusion broth
Text: as §1

[15] = test system: Staphylococcus epidermidis MB 5414; settings: MB5414, brain heart infusion broth
Text: as §1

| MIC [2] [µg/mL] | MIC [3] [µg/mL] | MIC [4] [µg/mL] | MIC [5] [µg/mL] | MIC [6] [µg/mL] | MIC [7] [µg/mL] | MIC [8] [µg/mL] | MIC [9] [µg/mL] | MIC [10] [µg/mL] | MIC [11] [µg/mL] | MIC [12] [µg/mL] | MIC [13] [µg/mL] | MIC [14] [µg/mL] | MIC [15] [µg/mL] | SMILES | MIC [1] [µg/mL] |
| --- | --- | --- | --- | --- | --- | --- | --- | --- | --- | --- | --- | --- | --- | --- | --- |
| ≤ 0.06 | 0.06 (≈ 0.0816 µM) | 0.06 (≈ 0.0816 µM) | 128 (≈ 174 µM) | 8 (≈ 10.9 µM) | 0.25 (≈ 0.34 µM) | 2 (≈ 2.72 µM) | ≤ 0.06 | 64 (≈ 87.1 µM) | 4 (≈ 5.44 µM) | 0.5 (≈ 0.68 µM) | 8 (≈ 10.9 µM) | 8 (≈ 10.9 µM) | 1 (≈ 1.36 µM) | CC[C@H]1OC(=O)[C@H](C)[C@@H](O[C@H]2C[C@@](C)(OC)[C@@H](O)[C@H](C)O2)[C@H](C)[C@@H](O[C@@H]2O[C@H](C)C[C@H](N(C)C)[C@H]2O)[C@](C)(O)C[C@@H](C)NC[C@H](C)[C@@H](O)[C@]1(C)O [(IV), 9-Deoxo-8a-aza-8a-homoerythromycin A] | 0.5 (≈ 0.68 µM) |
| ≤ 0.06 | ≤ 0.06 | ≤ 0.06 | 128 (≈ 171 µM) | 4 (≈ 5.34 µM) | 0.25 (≈ 0.334 µM) | ≤ 0.06 | ≤ 0.06 | 2 (≈ 2.67 µM) | 1 (≈ 1.34 µM) | 0.5 (≈ 0.668 µM) | 1 (≈ 1.34 µM) | 2 (≈ 2.67 µM) | 1 (≈ 1.34 µM) | CC[C@H]1OC(=O)[C@H](C)[C@@H](O[C@H]2C[C@@](C)(OC)[C@@H](O)[C@H](C)O2)[C@H](C)[C@@H](O[C@@H]2O[C@H](C)C[C@H](N(C)C)[C@H]2O)[C@](C)(O)C[C@@H](C)N(C)C[C@H](C)[C@@H](O)[C@]1(C)O [(X), 9-Deoxo-8a-methyl-8a-aza-8a-homoerythromycin A] | 0.5 (≈ 0.668 µM) |
